Test results taken from ChEMBL document CHEMBL3045002, “3,4-Dihydropyrimidin-2(1H)-one derivatives: Organocatalysed microwave assisted synthesis and evaluation of their antioxidant activity” (Med Chem Res, 2012).
Values after ≈ are worked out from the molar mass of the structure shown.

What was measured:
Type in all cases: functional
[1] = Antioxidant activity assessed as Fe2+ chelating activity after 10 min by spectrophotometry
[2] = Antioxidant activity assessed as DPPH scavenging activity after 2 hr by spectrophotometry
[3] = Antioxidant activity in phosphate buffer at pH 6.6 assessed as reducing power measuring conversion of potassium ferricyanide to ferrous form after 10 min by spectrophotometry

With COC(=O)C1=C(C)NC(=O)NC1c1ccccc1 (stereo not drawn) as the compound, how does the EC50 [1] read?
The EC50 was 2.23 µg/mL (≈ 9.06 µM).

What about the IC50 [2] of the same compound?
Its IC50 is 28.43 µg/mL (≈ 115 µM).

What about the EC50 [3] of the same compound?
Its EC50 is 97.56 µg/mL (≈ 396 µM).

For CCOC(=O)C1=C(C)NC(=O)NC1c1ccc(O)c(OC)c1 (stereo not drawn), which EC50 [1] is on record?
The EC50 was 0.88 µg/mL (≈ 2.87 µM).

And the IC50 [2]?
The IC50 was 3.65 µg/mL (≈ 11.9 µM).

And the EC50 [3]?
Its EC50 is 49.38 µg/mL (≈ 161 µM).

For CCOC(=O)C1=C(C)NC(=O)NC1c1ccc(O)cc1 (stereo not drawn), which EC50 [1] is on record?
Its EC50 is 0.89 µg/mL (≈ 3.22 µM).

What about the IC50 [2] of the same compound?
Its IC50 is 2.71 µg/mL (≈ 9.81 µM).

And the EC50 [3]?
Its EC50 is 61.4 µg/mL (≈ 222 µM).

What does the source list for COC(=O)C1=C(C)NC(=O)NC1c1ccc(OC)cc1 (stereo not drawn)?
EC50 [1]: 1.92 µg/mL (≈ 6.95 µM); IC50 [2]: 31.69 µg/mL (≈ 115 µM); EC50 [3]: 206 µg/mL (≈ 746 µM)

With COC(=O)C1=C(C)NC(=O)NC1c1ccc(O)c(OC)c1 (stereo not drawn) as the compound, how does the EC50 [1] read?
The EC50 was 0.9 µg/mL (≈ 3.08 µM).

What about the IC50 [2] of the same compound?
Its IC50 is 5.02 µg/mL (≈ 17.2 µM).

What about the EC50 [3] of the same compound?
Its EC50 is 57.14 µg/mL (≈ 195 µM).

Which EC50 [1] does the source give for COC(=O)C1=C(C)NC(=O)NC1c1ccc(O)cc1 (stereo not drawn) here?
Its EC50 is 0.79 µg/mL (≈ 3.01 µM).

And the IC50 [2]?
The IC50 was 3.14 µg/mL (≈ 12 µM).

What about the EC50 [3] of the same compound?
The EC50 was 67 µg/mL (≈ 255 µM).

What does the source list for COC(=O)C1=C(C)NC(=O)NC1c1cccc([N+](=O)[O-])c1 (stereo not drawn)?
EC50 [1]: 1.6 µg/mL (≈ 5.49 µM); IC50 [2]: 27.08 µg/mL (≈ 93 µM); EC50 [3]: 126.35 µg/mL (≈ 434 µM)

Which EC50 [1] does the source give for CCOC(=O)C1=C(C)NC(=O)NC1c1cccc([N+](=O)[O-])c1 (stereo not drawn) here?
Its EC50 is 1.16 µg/mL (≈ 3.8 µM).

What about the IC50 [2] of the same compound?
The IC50 was 27.73 µg/mL (≈ 90.8 µM).

What about the EC50 [3] of the same compound?
The EC50 was 339.06 µg/mL (≈ 1110 µM).

Which EC50 [1] does the source give for CCOC(=O)C1=C(C)NC(=O)NC1c1ccc([N+](=O)[O-])cc1 (stereo not drawn) here?
Its EC50 is 1.86 µg/mL (≈ 6.09 µM).

And the IC50 [2]?
Its IC50 is 33.29 µg/mL (≈ 109 µM).

What about the EC50 [3] of the same compound?
Its EC50 is 238.09 µg/mL (≈ 780 µM).

Which results are given for COC(=O)C1=C(C)NC(=O)NC1c1ccc([N+](=O)[O-])cc1 (stereo not drawn)?
EC50 [1]: 1.71 µg/mL (≈ 5.87 µM); IC50 [2]: 27.78 µg/mL (≈ 95.4 µM); EC50 [3]: 170.02 µg/mL (≈ 584 µM)

What does the source list for CCOC(=O)C1=C(C)NC(=O)NC1c1ccc(OC)cc1 (stereo not drawn)?
EC50 [1]: 1.55 µg/mL (≈ 5.34 µM); IC50 [2]: 48.45 µg/mL (≈ 167 µM); EC50 [3]: 171.12 µg/mL (≈ 589 µM)

Which results are given for CCOC(=O)C1=C(C)NC(=O)NC1c1ccccc1 (stereo not drawn)?
EC50 [1]: 1.04 µg/mL (≈ 4 µM); IC50 [2]: 25.04 µg/mL (≈ 96.2 µM); EC50 [3]: 158.9 µg/mL (≈ 610 µM)

With Cc1cc(C(C)(C)C)c(O)c(C(C)(C)C)c1 [BUTYLATED HYDROXYTOLUENE] as the compound, how does the IC50 [2] read?
Its IC50 is 2.18 µg/mL (≈ 9.89 µM).

What about the EC50 [3] of the same compound?
The EC50 was 20 µg/mL (≈ 90.8 µM).

For Oc1cc(O)c2c(c1)OC(c1ccc(O)c(O)c1)C(O)C2 (stereo not drawn) [CATECHIN], which IC50 [2] is on record?
Its IC50 is 2.12 µg/mL (≈ 7.3 µM).

What about the EC50 [3] of the same compound?
Its EC50 is 10 µg/mL (≈ 34.5 µM).

For O=C(O)CC(O)(CC(=O)O)C(=O)O [CITRIC ACID], which EC50 [1] is on record?
The EC50 was 0.074 µg/mL (≈ 0.385 µM).

For O=C(O)c1cc(O)c(O)c(O)c1 [GALLIC ACID], which IC50 [2] is on record?
Its IC50 is 2.06 µg/mL (≈ 12.1 µM).

What about the EC50 [3] of the same compound?
Its EC50 is 5.25 µg/mL (≈ 30.9 µM).
